Assay results: patent publication US20100279990A1, “ANTIPROLIFERATIVE COMPOUNDS, COMPOSITIONS AND METHODS OF USE” (RAMOT AT TEL-AVIV UNIVERSITY LTD., priority 2006, published 2010)

Experiments:
[1] = test system: MEXF 514L; test: Monolayer Assay, PI: MEXF 514L (Melanoma); type: cell-based, human
Excerpt: (§1) This example illustrates cell proliferation data in the form of IC50, IC70 and IC90 values obtained by exposure of human cancer cell-lines to compound (Ia). […].

[2] = test system: MEXF 520L; test: Monolayer Assay, PI: MEXF 520L (Melanoma); type: cell-based, human
Excerpt: as §1

[3] = test system: human colon carcinoma cells (HT29); test: HT29 human colon carcinoma s.c. tumor in Nude CD1 male mice; type: in vivo
Excerpt: This example illustrates the effect of several compounds, including an exemplary compound of the present invention, on tumor volume. tumor weight and body weight in mice. Nude CD1 male mice were purchased from Harlan (Israel). Animals were housed under controlled conditions (temperature, humidity) and were given food and water ad libitum. After one week of acclimatization animals were inoculated s.c. with human colon carcinoma cells (HT29) (2,000,000 cell/animals.). Therapy began 8 days after inoculation, at which time the animals were divided randomly into 4 groups (7-8 mice/group) and administered ip 3 times weekly for 4 weeks with the following compounds: […] Body weight and tumor volume were measured weekly. Tumor volume is defined as (shortest diameter)^2×(longest diameter)×0.5. At the end of the treatment, animals were sacrificed and tumors and organs collected and weighed.

[4] = test system: human glioma U87 cells; test: Viability of human glioma U87 cell-line; type: cell-based; settings: FIG. 9
[5] = test system: PAXF PANC1; test: Monolayer Assay, PI: PAXF PANC1; type: cell-based, human
Excerpt: as §1

[6] = test system: HNXF 536L; test: Monolayer Assay, PI: HNXF 536L; type: cell-based, human
Excerpt: as §1

[7] = test system: MEXF 462NL; test: Monolayer Assay, PI: MEXF 462NL (Melanoma); type: cell-based, human
Excerpt: as §1

[8] = test system: OVXF 1619L; test: Monolayer Assay, PI: OVXF 1619L (Ovarian Cancer); type: cell-based, human
Excerpt: as §1

[9] = test system: Caspase 3 activity in human Jurkat lymphoma cells; test: Caspase 3 activity in human Jurkat lymphoma cell-line, fluorimetric Ac-DEVD-AMC; type: cell-based; settings: 4 hr after exposure, compared to vehicle treated cells
Protocol: This example illustrates Caspase 3 activity data obtained by administering compound (Ia) to a human Jurkat lymphoma cell-line. The results are depicted FIG. 8A. Each point is the mean of 2 determinations.
Caspase 3 activity was measured by an enzymatic fluorimetric method using a fluorigenic substrate (Ac-DEVD-AMC), which produces blue fluorescence detected at 360 nm wavelength. See Garcia-Calvo et al., J Biol Chem, 273(49), 32608-13 (1998). When AMC is cleaved from the substrate by caspase-3, and caspase-3-like enzymes, it produces a yellow-green fluorescence, which can be monitored by a fluorimeter at 460 nm. The amount of yellow green fluorescence is proportional to the activity of caspase-3 in the cell extract sample.
The human Jurkat lymphoma cell-line, as used in FIG. 8A, and the human MDR colon cancer LS1034 lysates, as used in FIG. 8B, were prepared by Triton X-100 extraction 4 hr after exposure to the applicable compound (10 or 20 μM) or the vehicle. Whole cell lysate was added to a buffer containing 100 μM peptide substrate, 100 mM HEPES, 10% glycerol, 1 mM EDTA and 10 mM dithiothreitol. Measurements were taken every 5 min for 80 min. These experiments were also monitored in the presence of a specific caspase-3 inhibitor, DEVD-AMC-CHO, which was added after 45 or 60 min to the reaction mixture, to ascertain the specificity of the enzyme.

[10] = test system: UXF 1138L; test: Monolayer Assay, PI: UXF 1138L (Uterus Body); type: cell-based, human
Excerpt: as §1

[11] = test system: LXF 526L; test: Monolayer Assay, PI: LXF 526L (Lung); type: cell-based, human
Excerpt: as §1

CN[C@H]1CC[C@@H](c2ccc(Cl)c(Cl)c2)c2ccc(C#CCCCO)cc21 [compound (Ia), (1S-cis)-4-(3,4-dichlorophenyl)-7-(5-hydroxy-1-pentyn-1-yl)-1,2,3,4-tetrahydro-N-methyl-1-naphthalenamine hydroiodide]
Test/Control (%) ([1]; 2.3 μg/ml): 90%
Test/Control activity class ([1]; 2.3 μg/ml): − (− (T/C = 50))
Test/Control (%) ([1]; 7.5 μg/ml): 3%
Test/Control activity class ([1]; 7.5 μg/ml): +++ (+++ (T/C < 10))
Test/Control (%) ([1]; 23. μg/ml): 2%
Test/Control activity class ([1]; 23. μg/ml): +++ (+++ (T/C < 10))
Test/Control (%) ([1]; 75. μg/ml): 3%
Test/Control activity class ([1]; 75. μg/ml): +++ (+++ (T/C < 10))
Test/Control (%) ([1]; .75 μg/ml): 108%
Test/Control activity class ([1]; .75 μg/ml): − (− (T/C = 50))
Test/Control (%) ([2]; 2.3 μg/ml): 83%
Test/Control activity class ([2]; 2.3 μg/ml): − (− (T/C = 50))
Test/Control (%) ([2]; 7.5 μg/ml): 8%
Test/Control activity class ([2]; 7.5 μg/ml): ++ (++ (10 <= T/C < 30))
Test/Control (%) ([2]; 23. μg/ml): 2%
Test/Control activity class ([2]; 23. μg/ml): +++ (+++ (T/C < 10))
Test/Control (%) ([2]; 75. μg/ml): 4%
Test/Control activity class ([2]; 75. μg/ml): +++ (+++ (T/C < 10))
Test/Control (%) ([2]; .75 μg/ml): 102%
Test/Control activity class ([2]; .75 μg/ml): − (− (T/C = 50))
tumor weight ([3]; HT29 tumor in nude mice, end of treatment, FIG. 17): very similar to the tumor weight of mice treated with 5 FU
tumor volume ([3]; HT29 tumor in nude mice, ip 3 times weekly, after 3 and 4 weeks of therapy, FIG. 16): significantly decreased compared to the control groups
decrease in body weight ([3]; compared to 5 FU or controls, FIG. 18): 10%
histopathological assessment of spleen, liver and kidney ([3]; end of treatment): change in capsule fibrosis at random
efficacy in inhibiting human colon cancer tumor growth ([3]; mice model, 30 mg/kg ip): high efficacy superior to sertraline
effect on cell viability [4]: inhibit this glioma cell-line in a dose dependant fashion
efficacy compared with paroxetine [4]: higher efficacy than paroxetine
Test/Control (%) ([5]; 2.3 μg/ml): 98%
Test/Control activity class ([5]; 2.3 μg/ml): − (− (T/C = 50))
Test/Control (%) ([5]; 7.5 μg/ml): 33%
Test/Control activity class ([5]; 7.5 μg/ml): + (+ (30 <= T/C < 50))
Test/Control (%) ([5]; 23. μg/ml): 3%
Test/Control activity class ([5]; 23. μg/ml): +++ (+++ (T/C < 10))
Test/Control (%) ([5]; 75. μg/ml): 4%
Test/Control activity class ([5]; 75. μg/ml): +++ (+++ (T/C < 10))
Test/Control (%) ([5]; .75 μg/ml): 105%
Test/Control activity class ([5]; .75 μg/ml): − (− (T/C = 50))
Test/Control (%) ([6]; 2.3 μg/ml): 102%
Test/Control activity class ([6]; 2.3 μg/ml): − (− (T/C = 50))
Test/Control (%) ([6]; 7.5 μg/ml): 97%
Test/Control activity class ([6]; 7.5 μg/ml): − (− (T/C = 50))
Test/Control (%) ([6]; 23. μg/ml): 4%
Test/Control activity class ([6]; 23. μg/ml): +++ (+++ (T/C < 10))
Test/Control (%) ([6]; 75. μg/ml): 3%
Test/Control activity class ([6]; 75. μg/ml): +++ (+++ (T/C < 10))
Test/Control (%) ([6]; .75 μg/ml): 112%
Test/Control activity class ([6]; .75 μg/ml): − (− (T/C = 50))
Test/Control (%) ([7]; 2.3 μg/ml): 107%
Test/Control activity class ([7]; 2.3 μg/ml): − (− (T/C = 50))
Test/Control (%) ([7]; 7.5 μg/ml): 20%
Test/Control activity class ([7]; 7.5 μg/ml): ++ (++ (10 <= T/C < 30))
Test/Control (%) ([7]; 23. μg/ml): 2%
Test/Control activity class ([7]; 23. μg/ml): +++ (+++ (T/C < 10))
Test/Control (%) ([7]; 75. μg/ml): 2%
Test/Control activity class ([7]; 75. μg/ml): +++ (+++ (T/C < 10))
Test/Control (%) ([7]; .75 μg/ml): 102%
Test/Control activity class ([7]; .75 μg/ml): − (− (T/C = 50))
Test/Control (%) ([8]; 2.3 μg/ml): 88%
Test/Control activity class ([8]; 2.3 μg/ml): − (− (T/C = 50))
Test/Control (%) ([8]; 7.5 μg/ml): 2%
Test/Control activity class ([8]; 7.5 μg/ml): +++ (+++ (T/C < 10))
Test/Control (%) ([8]; 23. μg/ml): 1%
Test/Control activity class ([8]; 23. μg/ml): +++ (+++ (T/C < 10))
Test/Control (%) ([8]; 75. μg/ml): 1%
Test/Control activity class ([8]; 75. μg/ml): +++ (+++ (T/C < 10))
Test/Control (%) ([8]; .75 μg/ml): 98%
Test/Control activity class ([8]; .75 μg/ml): − (− (T/C = 50))
Caspase 3 activity [9]: increase in the activity of the caspase-3
Test/Control (%) ([10]; 2.3 μg/ml): 103%
Test/Control activity class ([10]; 2.3 μg/ml): − (− (T/C = 50))
Test/Control (%) ([10]; 7.5 μg/ml): 3%
Test/Control activity class ([10]; 7.5 μg/ml): +++ (+++ (T/C < 10))
Test/Control (%) ([10]; 23. μg/ml): 2%
Test/Control activity class ([10]; 23. μg/ml): +++ (+++ (T/C < 10))
Test/Control (%) ([10]; 75. μg/ml): 3%
Test/Control activity class ([10]; 75. μg/ml): +++ (+++ (T/C < 10))
Test/Control (%) ([10]; .75 μg/ml): 102%
Test/Control activity class ([10]; .75 μg/ml): − (− (T/C = 50))
Test/Control (%) ([11]; 2.3 μg/ml): 81%
Test/Control activity class ([11]; 2.3 μg/ml): − (− (T/C = 50))
Test/Control (%) ([11]; 7.5 μg/ml): 6%
Test/Control activity class ([11]; 7.5 μg/ml): +++ (+++ (T/C < 10))
Test/Control (%) ([11]; 23. μg/ml): 5%
Test/Control activity class ([11]; 23. μg/ml): +++ (+++ (T/C < 10))
Test/Control (%) ([11]; 75. μg/ml): 4%
Test/Control activity class ([11]; 75. μg/ml): +++ (+++ (T/C < 10))
Test/Control (%) ([11]; .75 μg/ml): 92%
Test/Control activity class ([11]; .75 μg/ml): − (− (T/C = 50))
